The NIST ThermoML archive (doi:10.1016/j.fluid.2010.08.022)
Numbers after ± are expanded uncertainties.

Details: 101.33 kPa, Liquid crystal of unknown type; for speed of sound: Sing-around technique in a fixed-path interferometer; for mass density: Vibrating tube method

CCCCCCCC/C=C\CCCCCCCC(=O)[O-].OCC[NH2+]CCO [bis(2-hydroxyethyl)ammonium oleate]
Details | mass density [kg/m3] | speed of sound [m/s]
278.14 K | 978.16 ± 1.8 | 1601.5 ± 3.7
278.39 K | 977.996 ± 1.8 | 1600.3 ± 3.7
278.64 K | 977.834 ± 1.8 | 1599.2 ± 3.7
278.89 K | 977.67 ± 1.8 | 1598.1 ± 3.7
279.14 K | 977.506 ± 1.8 | 1596.9 ± 3.7
279.39 K | 977.342 ± 1.8 | 1595.7 ± 3.7
279.64 K | 977.177 ± 1.8 | 1594.6 ± 3.7
279.89 K | 977.017 ± 1.8 | 1593.5 ± 3.7
280.15 K | 976.852 ± 1.8 | 1592.3 ± 3.7
280.4 K | 976.689 ± 1.8 | 1591.2 ± 3.7
280.65 K | 976.525 ± 1.8 | 1590.1 ± 3.7
280.89 K | 976.361 ± 1.8 | 1589 ± 3.7
281.15 K | 976.197 ± 1.8 | 1587.9 ± 3.7
281.4 K | 976.035 ± 1.8 | 1586.8 ± 3.7
281.65 K | 975.87 ± 1.8 | 1585.7 ± 3.7
281.9 K | 975.706 ± 1.8 | 1584.6 ± 3.7
282.15 K | 975.544 ± 1.8 | 1583.5 ± 3.7
282.4 K | 975.38 ± 1.8 | 1582.5 ± 3.7
282.65 K | 975.217 ± 1.8 | 1581.4 ± 3.7
282.9 K | 975.053 ± 1.8 | 1580.3 ± 3.7
283.15 K | 974.89 ± 1.8 | 1579.3 ± 3.7
283.4 K | 974.726 ± 1.8 | 1578.2 ± 3.7
283.65 K | 974.562 ± 1.8 | 1577.2 ± 3.7
283.9 K | 974.401 ± 1.8 | 1576.2 ± 3.7
284.15 K | 974.236 ± 1.8 | 1575.1 ± 3.7
284.4 K | 974.073 ± 1.8 | 1574 ± 3.7
284.65 K | 973.91 ± 1.8 | 1573 ± 3.7
284.9 K | 973.745 ± 1.8 | 1572 ± 3.7
285.15 K | 973.584 ± 1.8 | 1571 ± 3.7
285.4 K | 973.419 ± 1.8 | 1569.9 ± 3.7
285.65 K | 973.258 ± 1.8 | 1568.9 ± 3.7
285.9 K | 973.092 ± 1.8 | 1567.9 ± 3.7
286.15 K | 972.93 ± 1.8 | 1566.9 ± 3.7
286.4 K | 972.766 ± 1.8 | 1565.8 ± 3.7
286.65 K | 972.604 ± 1.8 | 1564.8 ± 3.7
286.9 K | 972.442 ± 1.8 | 1563.8 ± 3.7
287.15 K | 972.275 ± 1.8 | 1562.8 ± 3.7
287.4 K | 972.113 ± 1.8 | 1561.8 ± 3.7
287.65 K | 971.951 ± 1.8 | 1560.8 ± 3.7
287.9 K | 971.788 ± 1.8 | 1559.8 ± 3.7
288.15 K | 971.625 ± 1.8 | 1558.8 ± 3.7
288.4 K | 971.46 ± 1.8 | 1557.8 ± 3.7
288.65 K | 971.299 ± 1.8 | 1556.7 ± 3.7
288.9 K | 971.135 ± 1.8 | 1555.8 ± 3.7
289.15 K | 970.972 ± 1.8 | 1554.8 ± 3.7
289.4 K | 970.811 ± 1.8 | 1553.8 ± 3.7
289.65 K | 970.645 ± 1.8 | 1552.8 ± 3.7
289.9 K | 970.483 ± 1.8 | 1551.8 ± 3.7
290.15 K | 970.32 ± 1.8 | 1550.8 ± 3.7
290.4 K | 970.158 ± 1.8 | 1549.8 ± 3.7
290.65 K | 969.995 ± 1.8 | 1548.9 ± 3.7
290.9 K | 969.831 ± 1.8 | 1547.9 ± 3.7
291.15 K | 969.668 ± 1.8 | 1546.9 ± 3.7
291.4 K | 969.506 ± 1.8 | 1545.9 ± 3.7
291.65 K | 969.343 ± 1.8 | 1544.9 ± 3.7
291.9 K | 969.18 ± 1.8 | 1543.8 ± 3.7
292.15 K | 969.016 ± 1.8 | 1542.7 ± 3.7
292.4 K | 968.854 ± 1.8 | 1541.7 ± 3.7
292.65 K | 968.691 ± 1.8 | 1540.8 ± 3.7
292.9 K | 968.527 ± 1.8 | 1539.8 ± 3.7
293.15 K | 968.365 ± 1.8 | 1538.9 ± 3.7
293.4 K | 968.202 ± 1.8 | 1538 ± 3.7
293.65 K | 968.039 ± 1.8 | 1537.1 ± 3.7
293.9 K | 967.876 ± 1.8 | 1536.2 ± 3.7
294.15 K | 967.713 ± 1.8 | 1535.3 ± 3.7
294.4 K | 967.548 ± 1.8 | 1534.4 ± 3.7
294.65 K | 967.388 ± 1.8 | 1533.5 ± 3.7
294.91 K | 967.225 ± 1.8 | 1532.7 ± 3.7
295.15 K | 967.061 ± 1.8 | 1531.8 ± 3.7
295.4 K | 966.898 ± 1.8 | 1530.9 ± 3.7
295.66 K | 966.735 ± 1.8 | 1530 ± 3.7
295.91 K | 966.572 ± 1.8 | 1529.1 ± 3.7
296.16 K | 966.408 ± 1.8 | 1528.3 ± 3.7
296.4 K | 966.246 ± 1.8 | 1527.4 ± 3.7
296.66 K | 966.084 ± 1.8 | 1526.5 ± 3.7
296.91 K | 965.921 ± 1.8 | 1525.6 ± 3.7
297.16 K | 965.758 ± 1.8 | 1524.8 ± 3.7
297.41 K | 965.595 ± 1.8 | 1523.9 ± 3.7
297.66 K | 965.433 ± 1.8 | 1523 ± 3.7
297.91 K | 965.27 ± 1.8 | 1522.2 ± 3.7
298.16 K | 965.108 ± 1.8 | 1521.3 ± 3.7
298.41 K | 964.945 ± 1.8 | 1520.5 ± 3.7
298.66 K | 964.781 ± 1.8 | 1519.6 ± 3.7
298.9 K | 964.619 ± 1.8 | 1518.8 ± 3.7
299.15 K | 964.457 ± 1.8 | 1517.9 ± 3.7
299.4 K | 964.294 ± 1.8 | 1517.1 ± 3.7
299.66 K | 964.132 ± 1.8 | –
299.91 K | 963.968 ± 1.8 | 1515.4 ± 3.7
300.16 K | 963.805 ± 1.8 | 1514.5 ± 3.7
300.4 K | 963.642 ± 1.8 | 1513.7 ± 3.7
300.66 K | 963.481 ± 1.8 | 1512.8 ± 3.7
300.9 K | 963.318 ± 1.8 | 1512 ± 3.7
301.16 K | 963.154 ± 1.8 | 1511.2 ± 3.7
301.41 K | 962.991 ± 1.8 | 1510.3 ± 3.7
301.66 K | 962.83 ± 1.8 | 1509.5 ± 3.7
301.91 K | 962.666 ± 1.8 | 1508.7 ± 3.7
302.16 K | 962.503 ± 1.8 | 1507.8 ± 3.7
302.41 K | 962.341 ± 1.8 | 1507 ± 3.7
302.66 K | 962.178 ± 1.8 | 1506.1 ± 3.7
302.91 K | 962.013 ± 1.8 | 1505.3 ± 3.7
303.16 K | 961.853 ± 1.8 | 1504.5 ± 3.7
303.41 K | 961.689 ± 1.8 | 1503.6 ± 3.7
303.66 K | 961.527 ± 1.8 | 1502.8 ± 3.7
303.91 K | 961.364 ± 1.8 | 1502 ± 3.7
304.16 K | 961.2 ± 1.8 | 1501.2 ± 3.7
304.41 K | 961.038 ± 1.8 | 1500.3 ± 3.7
304.66 K | 960.875 ± 1.8 | 1499.5 ± 3.7
304.91 K | 960.712 ± 1.8 | 1498.7 ± 3.7
305.16 K | 960.55 ± 1.8 | 1497.9 ± 3.7
305.41 K | 960.387 ± 1.8 | 1497 ± 3.7
305.66 K | 960.223 ± 1.8 | 1496.2 ± 3.7
305.91 K | 960.061 ± 1.8 | 1495.4 ± 3.7
306.16 K | 959.898 ± 1.8 | 1494.6 ± 3.7
306.4 K | 959.736 ± 1.8 | 1493.8 ± 3.7
306.65 K | 959.573 ± 1.8 | 1493 ± 3.7
306.91 K | 959.409 ± 1.8 | 1492.1 ± 3.7
307.16 K | 959.246 ± 1.8 | 1491.3 ± 3.7
307.41 K | 959.083 ± 1.8 | 1490.5 ± 3.7
307.66 K | 958.92 ± 1.8 | 1489.7 ± 3.7
307.91 K | 958.759 ± 1.8 | 1488.9 ± 3.7
308.16 K | 958.595 ± 1.8 | 1488.1 ± 3.7
308.4 K | 958.43 ± 1.7 | 1487.3 ± 3.7
308.65 K | 958.268 ± 1.7 | 1486.5 ± 3.7
308.91 K | 958.105 ± 1.7 | 1485.7 ± 3.7
309.16 K | 957.942 ± 1.7 | 1484.9 ± 3.7
309.4 K | 957.779 ± 1.7 | 1484.1 ± 3.7
309.66 K | 957.617 ± 1.7 | 1483.3 ± 3.7
309.91 K | 957.453 ± 1.7 | 1482.5 ± 3.7
310.16 K | 957.289 ± 1.7 | 1481.7 ± 3.7
310.41 K | 957.128 ± 1.7 | 1480.9 ± 3.7
310.66 K | 956.963 ± 1.7 | 1480.1 ± 3.7
